Assay results: patent US20170108514A1, “DIAGNOSIS OF MULTIPLE SCLEROSIS IN HUMAN AND ANIMAL SUBJECTS” (THE REGENTS OF THE UNIVERSITY OF COLORADO, a body corporate, priority 2014, published 2017)
Counter-ions that a name gives are not always drawn.

Tests used:
[1] = tested on: Th40 cells from MS subjects; assay: Antigen assay: proliferation of CFSE-labeled T cells (Th40) exposed to autologous APC/peptide antigen for 7 days; format: cell-based, human
[2] = tested on: multiple sclerosis patients; settings: cited from earlier work; for relapses / attacks: clinical reports; for relapses / attacks / MRI / MRI lesions / disease / disability progression: MS patients
[3] = tested on: multiple sclerosis patients; settings: human, in vivo; cited from earlier work
[4] = DR4 co-expressed with DR2, antigen 5 μg/ml
[5] = DR4 co-expressed with DR6, antigen 5 μg/ml
[6] = DR6 a fixed allele, any haplotype at other allele, antigen 5 μg/ml
[7] = RRMS subjects, DR2 at one allele, other allele any haplotype, antigen 5 μg/ml
[8] = DR2 and DR6 co-expressed, antigen 5 μg/ml
[9] = DR4 expressing MS subjects, open second allele, antigen 5 μg/ml
[10] = DR6 at both alleles, antigen 5 μg/ml

Compound: ADPGSRPHLIRLFSRDAPGR [MBP83, MS associated peptide antigen from MBP]
- antigen response by Th40 cells [1, 4]: diminished
- antigen response by Th40 cells [1, 5]: increased
- antigen response by Th40 cells [1, 6]: best response
- antigen response by Th40 cells [1, 7]: least reactive

Compound: Glatiramer acetate [Copaxone]
- relapses / attacks [2]: decreasing frequency and severity of attacks
- MRI / MRI lesions ([2]; reports): no reports of changes in MRI lesions

Compound: Natalizumab [Tysabri]
- MRI / MRI lesions ([2]; reports): some positive effects on MRI
- disease / disability progression ([2]; reports): slow progression
- reduction in relapse rate ([2]; reports, MS subjects, IV infusion once every four weeks): two-thirds

Compound: COC(=O)/C=C/C(=O)OC [Tecfidera, dimethyl fumarate]
- relapses / attacks [2]: some reduction in the average annual number of relapses
- disease / disability progression ([2]; reports): not reduced significantly

Compound: O=C1c2c(O)ccc(O)c2C(=O)c2c(NCCNCCO)ccc(NCCNCCO)c21 [Novantrone, mitoxantrone]
- relapses / attacks [2]: lessens relapses
- disease / disability progression ([2]; reports): slows progression

Compound: FFRDHSYQE [MOG99, MS associated peptide antigen from MOG]
- antigen response by Th40 cells [1, 8]: significantly less response
- antigen response by Th40 cells [1, 4]: remains high
- antigen response by Th40 cells [1, 5]: unaffected
- antigen response by Th40 cells [1, 9]: responded
- antigen response by Th40 cells [1, 7]: best antigen response

Compound: MEVGWYRPPFSRVVHLYRNGK [MOG35, MS associated peptide antigen from MOG]
- antigen response by Th40 cells [1, 8]: prominent response antigen
- antigen response by Th40 cells [1, 9]: very little response

Compound: C/C(O)=C(\C#N)C(=O)Nc1ccc(C(F)(F)F)cc1 [Aubagio, teriflunomide]
- safety in patients [3]: moderate potential for hepatotoxicity

Compound: CCCCCCCCc1ccc(CCC(N)(CO)CO)cc1 [Gilenya, fingolimod]
- safety in patients [3]: extremely immune-suppressive

Compound: alemtuzumab [Lemtrada]
- safety in patients [3]: significantly increases the risk for opportunistic infections

Compound: AQGTLSKIFKLGGRDSRSGSPMARR [MBP146, MS associated peptide antigen from MBP]
- antigen response by Th40 cells [1, 8]: no response
- antigen response by Th40 cells [1, 10]: worst response antigen

Compound: LVERGNHSKIVAGVLGLI [PLP103, MS associated peptide antigen from PLP]
- antigen response by Th40 cells [1, 8]: significantly greater than the remaining antigens tested
- antigen response by Th40 cells [1, 9]: equally
- antigen response by Th40 cells [1, 6]: best response
- antigen response by Th40 cells [1, 10]: best Th40 response
